In US12357603B2, “Acyl sulfonamides for treating cancer” (Bayer Aktiengesellschaft, priority 2019, dated 2025):

Assays:
MDA-MB-436 cells = test: Proliferation assay MDA-MB-436, negative control cell line (Alamar Blue, 144 h); assay type: cell-based; conditions: Homo sapiens, MDA-MB-436, 144 h, arithmetic mean
Procedure, shortened: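 MDA-MB-436 cells (3000/well, DMEM/Ham's F12 with 2.5% FBS) treated 24 h after plating with compounds at 2.0×10E-5 to 2.0×10E-9 M (9 dilutions, 0.2% DMSO), triplicates, 144 h at 37 °C, 5% CO2. Viability by Alamar Blue, 2 h, fluorescence at 590 nm.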

[1] = test system: ESR1 transcription (luciferase signal in MVLN cells); test: Repression of ESR1 transcription, luciferase reporter in MVLN cells; assay type: cell-based; conditions: Homo sapiens, MVLN, inhibition of luciferase signal in MVLN cells; arithmetic mean
Procedure, shortened: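 MVLN cells (constitutive ER, stably carrying a Vitellogenin A2 hormone-responsive element–luciferase reporter) treated in duplicate; luciferase read after 24 h. Cell density checked by Alamar Blue fluorescence (530/590 nm) after 2 h to exclude cell-loss effects.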

ZR-75-1 cells = test: Proliferation assay ZR-75-1 (Alamar Blue, 144 h); assay type: cell-based; conditions: Homo sapiens, ZR-75-1, 144 h, arithmetic mean, read-out: ZR75-1 proliferation assay, EC50 [M] (arithmetic mean)
Procedure, shortened: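 Cells seeded at 3000/well in RPMI 1640 with 2.5% FBS and treated 24 h later across 2.0×10E-5 to 2.0×10E-9 M (9 dilutions, 0.2% DMSO, triplicate). After 144 h at 37 °C, 5% CO2, viability read by Alamar Blue fluorescence at 590 nm following 2 h reagent incubation.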

[2] = molecular target: Recombinant human His-tagged Kat6a protein (amino acids 194-810) (Homo sapiens (Human), UniProt Q92794); test: Kat6a activity assay (TR-FRET, acetylation of biotinylated Histone-H4-derived peptide); assay type: biochemical; conditions: 60 mins at 22° C., read-out: KAT6A-DPF/HAT domain IC50 [mol/l] (arithmetic mean)
Procedure, shortened: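 Sf9-expressed human His-Kat6a (aa 194-810) incubated 60 min at 22 °C with compounds (0.01-20 μM) in Tris pH 8 buffer containing 220 nM biotinylated H4 peptide (aa 1-24) and 600 nM acetyl-CoA. Acetyl-K8 detected by TR-FRET (665/620 nm ratio); IC50 by four-parameter fit versus DMSO controls.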

Sequence of Recombinant human His-tagged Kat6a protein (amino acids 194-810) (Q92794 194-810): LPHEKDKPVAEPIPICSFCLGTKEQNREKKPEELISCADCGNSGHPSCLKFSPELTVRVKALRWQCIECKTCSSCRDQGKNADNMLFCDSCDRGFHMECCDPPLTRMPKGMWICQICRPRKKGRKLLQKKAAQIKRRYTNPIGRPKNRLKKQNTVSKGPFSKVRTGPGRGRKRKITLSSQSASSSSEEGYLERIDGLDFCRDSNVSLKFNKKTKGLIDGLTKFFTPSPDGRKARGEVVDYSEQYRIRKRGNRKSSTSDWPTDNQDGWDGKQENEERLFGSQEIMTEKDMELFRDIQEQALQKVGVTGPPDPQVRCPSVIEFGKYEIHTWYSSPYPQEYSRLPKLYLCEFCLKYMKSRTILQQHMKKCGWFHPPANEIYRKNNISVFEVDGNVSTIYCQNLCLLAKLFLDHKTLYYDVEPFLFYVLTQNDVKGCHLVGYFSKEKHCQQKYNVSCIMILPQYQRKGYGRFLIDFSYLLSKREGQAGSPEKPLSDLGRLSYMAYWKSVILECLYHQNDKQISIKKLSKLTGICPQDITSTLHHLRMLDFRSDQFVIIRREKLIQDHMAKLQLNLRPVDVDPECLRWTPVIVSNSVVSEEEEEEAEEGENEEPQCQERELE

Compound	EC50 (MDA-MB-436 cells)	IC50 [1]	EC50 (ZR-75-1 cells)	IC50 [2]
CN(C)c1cc2oc(C(=O)NS(=O)(=O)c3ccccc3-c3ccccc3)cc2cc1Cl [Example 189, N-([1,1′-biphenyl]-2-ylsulfonyl)-5-chloro-6-(dimethylamino)benzofuran-2-carboxamide]	> 20000 nM	6480 nM	> 2e-05 M	2440 nM
CCOc1ccc(C(F)(F)F)cc1S(=O)(=O)NC(=O)c1cc2ccc(N(C)C)cc2o1 [Example 172, 6-(Dimethylamino)-N-[2-ethoxy-5-(trifluoromethyl)phenyl]sulfonyl-benzofuran-2-carboxamide]	> 20000 nM	72.3 nM	8.08e-08 M	54 nM
Cc1ccc2cccc(S(=O)(=O)NC(=O)c3cc4cc(Br)c(N(C)C)cc4o3)c2n1 [Example 216, 5-Bromo-6-(dimethylamino)-N-(2-methylquinoline-8-sulfonyl)-1-benzofuran-2-carboxamide]	> 20000 nM	> 20000 nM	> 2e-05 M	2050 nM
CCNc1ccc2cc(C(=O)NS(=O)(=O)c3ccccc3-c3ccccc3)oc2c1 [Example 211, N-([1,1′-biphenyl]-2-sulfonyl)-6-(ethylamino)-1-benzofuran-2-carboxamide]	> 20000 nM	4840 nM	1.21e-06 M	350 nM
CN(C)c1cc2oc(C(=O)NS(=O)(=O)c3ccccc3OC3CC3)cc2cc1Br [Example 207, 5-Bromo-N-[2-(cyclopropyloxy)benzene-1-sulfonyl]-6-(dimethylamino)-1-benzofuran-2-carboxamide]	> 20000 nM	11800 nM	> 2e-05 M	6810 nM
CCOc1ccc(C(C)CC)cc1S(=O)(=O)NC(=O)c1cc2ccc(N(C)C)cc2o1 (racemic) [Example 170, 6-(Dimethylamino)-N-(2-ethoxy-5-sec-butyl-phenyl)sulfonyl-benzofuran-2-carboxamide (rac)]	> 20000 nM	22.1 nM	3.02e-08 M	4.4 nM
COc1cc(S(=O)(=O)NC(=O)c2cc3ccc(N(C)C)cc3o2)cc(Cn2cccn2)c1OC [Example 103, N-{3,4-Dimethoxy-5-[(1H-pyrazol-1-yl)methyl]benzene-1-sulfonyl}-6-(dimethylamino)-1-benzofuran-2-carboxamide]	> 20000 nM	2950 nM	2.6e-06 M	1210 nM
Cc1ccc(S(=O)(=O)NC(=O)c2cc3ccc(N(C)C)cc3o2)c(N)n1 [Example 130, N-(2-Amino-6-methylpyridine-3-sulfonyl)-6-(dimethylamino)-1-benzofuran-2-carboxamide]	15100 nM	4360 nM	2.93e-06 M	2180 nM
CCCCOc1ccccc1S(=O)(=O)NC(=O)c1cc2ccc(N(C)CCOC)cc2o1 [Example 219, N-(2-butoxybenzene-1-sulfonyl)-6-[(2-methoxyethyl)(methyl)amino]-1-benzofuran-2-carboxamide]	> 20000 nM	4060 nM	6.05e-06 M	1280 nM
CCNc1ccc2cc(C(=O)NS(=O)(=O)c3ccccc3OCC)oc2c1 [Example 212, N-(2-Ethoxybenzene-1-sulfonyl)-6-(ethylamino)-1-benzofuran-2-carboxamide]	> 20000 nM	9280 nM	4.19e-06 M	1130 nM
CN(C)c1cc(C(F)(F)F)c2cc(C(=O)NS(=O)(=O)c3ccccc3)oc2c1 [Example 194, 6-(Dimethylamino)-N-(phenylsulfonyl)-4-(trifluoromethyl)benzofuran-2-carboxamide]	> 20000 nM	4090 nM	1.12e-06 M	44.9 nM
CC(C)c1ccc(OCC(F)(F)F)c(S(=O)(=O)NC(=O)c2cc3ccc(N(C)C)cc3o2)c1 [Example 178, 6-(Dimethylamino)-N-[5-isopropyl-2-(2,2,2-trifluoroethoxy)phenyl]sulfonyl-benzofuran-2-carboxamide]	> 20000 nM	69.6 nM	8.65e-08 M	11 nM
CN(C)c1ccc2cc(C(=O)NS(=O)(=O)c3ccccc3OC(F)(F)C(F)(F)F)oc2c1 [Example 96, 6-(Dimethylamino)-N-[2-(pentafluoroethoxy)benzene-1-sulfonyl]-1-benzofuran-2-carboxamide]	> 20000 nM	556 nM	1e-06 M	260 nM
CCOc1ccc(F)cc1S(=O)(=O)NC(=O)c1cc2ccc(N(C)C)cc2o1 [Example 173, 6-(Dimethylamino)-N-(2-ethoxy-5-fluoro-phenyl)sulfonyl-benzofuran-2-carboxamide]	> 20000 nM	67.4 nM	1.1e-07 M	97.3 nM
CCOc1ccccc1S(=O)(=O)NC(=O)c1cc2cc(C)c(N(C)C)cc2o1 [Example 200, 6-(Dimethylamino)-N-(2-ethoxybenzene-1-sulfonyl)-5-methyl-1-benzofuran-2-carboxamide]	> 20000 nM	> 20000 nM	> 2e-05 M	6740 nM
CCc1ncnc(OC)c1S(=O)(=O)NC(=O)c1cc2ccc(N(C)C)cc2o1 [Example 131, 6-(Dimethylamino)-N-(4-ethyl-6-methoxypyrimidine-5-sulfonyl)-1-benzofuran-2-carboxamide]	> 20000 nM	325 nM	8.31e-07 M	470 nM
CCOc1ccccc1S(=O)(=O)NC(=O)c1cc2cc(F)c(N(C)C)cc2o1 [Example 198, 6-(Dimethylamino)-N-((2-ethoxyphenyl)sulfonyl)-5-fluorobenzofuran-2-carboxamide]	> 20000 nM	2320 nM	7.2e-06 M	4060 nM
Cc1cccc(Nc2ccncc2S(=O)(=O)NC(=O)c2cc3ccc(N(C)C)cc3o2)c1 [Example 151, 6-(Dimethylamino)-N-[4-(3-methylanilino)pyridine-3-sulfonyl]-1-benzofuran-2-carboxamide]	> 20000 nM	9850 nM	2.87e-06 M	234 nM
COc1cccc(S(C)(=O)=O)c1S(=O)(=O)NC(=O)c1cc2ccc(N(C)C)cc2o1 [Example 140, 6-(Dimethylamino)-N-[2-(methanesulfonyl)-6-methoxybenzene-1-sulfonyl]-1-benzofuran-2-carboxamide]	> 20000 nM	9650 nM	7.83e-06 M	5670 nM
CN(C)c1ccc2cc(C(=O)NS(=O)(=O)c3ccccc3OCCN)oc2c1 [Example 167, N-[2-(2-Aminoethoxy)benzene-1-sulfonyl]-6-(dimethylamino)-1-benzofuran-2-carboxamide hydrogen chloride (1/1)]	> 20000 nM	9100 nM	9.52e-06 M	2060 nM
Cc1ccc2cccc(S(=O)(=O)NC(=O)c3cc4cc(Cl)c(N(C)C)cc4o3)c2n1 [Example 187, 5-Chloro-6-(dimethylamino)-N-((2-methylquinolin-8-yl)sulfonyl)benzofuran-2-carboxamide]	> 20000 nM	> 20000 nM	> 2e-05 M	6640 nM
COc1ccc(S(=O)(=O)NC(=O)c2cc3ccc(N(C)C)cc3o2)cn1 [Example 152, 6-(Dimethylamino)-N-(6-methoxypyridine-3-sulfonyl)-1-benzofuran-2-carboxamide]	> 20000 nM	2930 nM	2.16e-06 M	1400 nM
